Assay results reported in patent publication EP4722219A1 (Gan & Lee Pharmaceuticals Co., Ltd., priority 2023, dated 2024).

Legend:
AR protein = molecular target: T1, AR protein (Homo sapiens, UniProt P10275); assay: AR protein degradation in VCaP cells (Western blot); assay type: cell-based; conditions: 8h
T1 construct: host or cells: VCaP
T1 sequence (P10275 1-920): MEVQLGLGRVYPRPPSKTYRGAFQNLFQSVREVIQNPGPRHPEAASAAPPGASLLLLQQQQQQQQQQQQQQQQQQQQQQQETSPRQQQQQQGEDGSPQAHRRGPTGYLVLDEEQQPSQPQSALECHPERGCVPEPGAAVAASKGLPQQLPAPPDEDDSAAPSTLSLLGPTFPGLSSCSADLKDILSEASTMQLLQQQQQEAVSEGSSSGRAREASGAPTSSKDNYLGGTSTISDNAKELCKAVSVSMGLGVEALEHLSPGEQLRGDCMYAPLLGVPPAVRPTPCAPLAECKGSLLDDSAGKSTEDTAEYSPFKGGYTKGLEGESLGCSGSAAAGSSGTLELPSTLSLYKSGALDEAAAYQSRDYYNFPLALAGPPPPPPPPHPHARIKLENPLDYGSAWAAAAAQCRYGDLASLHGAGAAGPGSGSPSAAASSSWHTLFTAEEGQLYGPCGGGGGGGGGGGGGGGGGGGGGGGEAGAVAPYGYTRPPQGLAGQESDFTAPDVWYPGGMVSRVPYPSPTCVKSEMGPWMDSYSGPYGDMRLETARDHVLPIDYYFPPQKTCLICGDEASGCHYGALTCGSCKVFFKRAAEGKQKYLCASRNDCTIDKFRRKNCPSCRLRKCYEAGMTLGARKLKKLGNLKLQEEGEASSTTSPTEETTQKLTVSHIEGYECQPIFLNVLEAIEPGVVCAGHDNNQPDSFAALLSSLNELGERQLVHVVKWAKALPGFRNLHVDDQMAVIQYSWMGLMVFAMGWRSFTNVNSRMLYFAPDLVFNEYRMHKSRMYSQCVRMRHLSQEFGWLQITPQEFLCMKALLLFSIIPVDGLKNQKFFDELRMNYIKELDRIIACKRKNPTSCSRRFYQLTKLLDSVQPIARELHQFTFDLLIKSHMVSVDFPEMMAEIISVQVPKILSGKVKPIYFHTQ
In short: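 AR-positive VCaP human prostate cancer cells grown in DMEM with 10% FBS were plated in six-well plates at 3×10^5 cells/well and incubated overnight. Compounds were then added at 1 µL/well alongside a solvent control and incubated for 8h. Lysates in RIPA buffer with protease inhibitor were quantified by BCA and run by SDS-PAGE. AR was detected by Western blot, and degradation was calculated from band grayscale normalized to GAPDH.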

VCaP cells = assay: Inhibition of VCaP cell proliferation (WST-8); assay type: cell-based; conditions: Homo sapiens, 168 hours
In short: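 Proliferation was read on day 9 as WST-8 absorbance at 450 nm after VCaP cells (15,000/well, DMEM/10% FBS, 37°C) were exposed from day 2 to compound at 9 points, 5-fold serial dilution, top final concentration 10 µM.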

| SMILES | Degradation rate of AR protein in VCaP cells (AR protein; 0.5 nM) | Degradation rate of AR protein in VCaP cells (AR protein; 5 nM) | IC50 (VCaP cells) | AR protein degradation rate at fixed concentration (%) at 0.0005 µM (AR protein; 0.5 nM) | AR protein degradation rate at fixed concentration (%) at 0.005 µM (AR protein; 5 nM) |
| --- | --- | --- | --- | --- | --- |
| COc1cc(O[C@H]2C(C)(C)[C@H](NC(=O)c3ccc(N4CCC(C)(CN5CCC6(CC5)COc5cc7c(cc56)n(C)c(=O)n7C5CCC(=O)NC5=O)CC4)cc3)C2(C)C)ccc1C#N (relative stereo) [A-P-16] | 66% | 83% | 1 nM |  |  |
| COc1cc(O[C@H]2CC[C@H](NC(=O)c3ccc(N4CCC(CN5CCC6(CC5)COc5c6ccc6c5n(C)c(=O)n6C5CCC(=O)NC5=O)CC4)nn3)CC2)ccc1C#N (stereo partly drawn) [A-P-22] |  |  | 0.026 nM | 84% | 69% |
| COc1cc(O[C@H]2C(C)(C)[C@H](NC(=O)c3ccc(N4CCC(C)(CN5CCC6(CC5)COc5c6ccc(C(=O)N[C@H]6CCC(=O)NC6=O)c5F)CC4)cc3)C2(C)C)ccc1C#N [A-P-85, 1'-((1-(4-(((1r,3r)-3-(4-cyano-3-methoxyphenoxy)-2,2,4,4-tetramethylcyclobutyl)carbamoyl)phenyl)-4-methylpiperidin-4-yl)methyl)-N-((S)-2,6-dioxopiperidin-3-yl)-7-fluoro-2H-spiro[benzofuran-3,4'-piperidin]-6-carboxamide] | 18% | 34% | 540 nM |  |  |
| COc1cc(O[C@H]2C(C)(C)[C@H](NC(=O)c3ccc(N4CCC(CN5CCC6(CCc7cc(F)c(C(=O)N[C@H]8CCC(=O)NC8=O)cc7O6)CC5)CC4)cc3)C2(C)C)ccc1C#N [A-P-39] | -6% | 9% | > 10000 nM |  |  |
| COc1cc(O[C@H]2C(C)(C)[C@H](NC(=O)c3ccc(N4CCC(CN5CCC6(CC5)COc5c6ccc(C(=O)N[C@H]6CCC(=O)NC6=O)c5F)CC4)cc3)C2(C)C)ccc1C#N [A-P-83] | 36% | 66% | 2580 nM |  |  |
| COc1cc(O[C@H]2C(C)(C)[C@H](NC(=O)c3ccc(N4CCC5(CC4)CC(N4CCC6(CC4)COc4cc7c(cc46)n(C)c(=O)n7C4CCC(=O)NC4=O)C5)cc3)C2(C)C)ccc1C#N (relative stereo) [A-P-21] | 57% | 71% | 2 nM |  |  |
| CC1(C)[C@H](NC(=O)c2ccc(N3CCC(CN4CCC5(CCc6cc(C(=O)N[C@H]7CCC(=O)NC7=O)c(F)cc6O5)CC4)CC3)nc2)C(C)(C)[C@H]1Oc1ccc(C#N)c(C(F)(F)F)c1 [A-P-45, 1'-((1-(5-(((1R,3R)-3-(4-cyano-3-(trifluoromethyl)phenoxy)-2,2,4,4-tetramethylcyclobutyl)carbamoyl)pyridin-2-yl)piperidin-4-yl)methyl)-N-((S)-2,6-dioxopiperidin-3-yl)-7-fluorospiro[chroman-2,4'-piperidin]-6-carboxamide] | 44% | 77% | 300 nM |  |  |
| COc1cc(O[C@H]2C(C)(C)[C@H](NC(=O)c3ccc(N4CCC(CN5CCC6(CC5)COc5c6ccc(C(=O)N[C@H]6CCC(=O)NC6=O)c5F)(OC)CC4)cc3)C2(C)C)ccc1C#N [A-P-86, 1'-((1-(4-(((1r,3r)-3-(4-cyano-3-methoxyphenoxy)-2,2,4,4-tetramethylcyclobutyl)carbamoyl)phenyl)-4-methoxypiperidin-4-yl)methyl)-N-((S)-2,6-dioxopiperidin-3-yl)-7-fluoro-2H-spiro[benzofuran-3,4'-piperidin]-6-carboxamide] | -30% | 1% | 1790 nM |  |  |
| C[C@H]1CC2(CCN(c3ccc(N4CCC(CN5CCC6(CC5)COc5ccc7c(c56)n(C)c(=O)n7C5CCC(=O)NC5=O)CC4)cc3)CC2)CN1c1ccc(C#N)c(Cl)c1 (stereo partly drawn) [A-P-26, 2-chloro-4-((3 S)-8-(4-(4-((3-((2,6-dioxopiperidin-3-yl))-1-methyl-2-oxo-2,3-dihydro-1H,7H-spiro[benzofuro[4,5-d]imidazole-8,4'-piperidin]-1'-yl)methyl)piperidin-1-yl)phenyl)-3-methyl-2,8-diazaspiro[4.5]decan-2-yl)benzonitrile] |  |  | 34 nM | -43% | 18% |
| COc1cc(O[C@H]2C(C)(C)[C@H](NC(=O)c3ccc(N4CCC(C)(CN5CC6(CCC7(CC6)COc6c7ccc7c6CN(C6CCC(=O)NC6=O)C7=O)C5)CC4)cc3)C2(C)C)ccc1C#N (relative stereo) [A-P-4] | 50% | 78% | 0.19 nM |  |  |
| COc1cc(O[C@H]2C(C)(C)[C@H](NC(=O)c3ccc(N4CCC(CN5CCC6(CCc7cc(C(=O)N[C@H]8CCC(=O)NC8=O)c(F)cc7O6)CC5)CC4)cc3)C2(C)C)ccc1C#N [A-P-30] | 36% | 71% | 1000 nM |  |  |
| N#Cc1ccc(O[C@H]2CC[C@H](NC(=O)c3ccc(N4CCC(N5CCC6(CC5)CCC5(CC6)COc6c5ccc5c6CN(C6CCC(=O)NC6=O)C5=O)CC4)nn3)CC2)cc1Cl (relative stereo) [A-P-7, N-((1r,4r)-4-(3-chloro-4-cyanophenoxy)cyclohexy 1)-6-(4-(7-(2,6-dioxopiperidin-3-yl)-6-oxo-7,8-dihydro-2H,6H-dipyridyl[2,3-e]isoindole-3,1'-cyclohexane-4',4'"-piperidin]-1"-yl)pyridazine-3-carboxamide] | 79% | 89% | 6 nM |  |  |
| COc1cc(O[C@H]2C(C)(C)[C@H](NC(=O)c3ccc(N4CCC(F)(CN5CCC6(CC5)COc5c6ccc(C(=O)N[C@H]6CCC(=O)NC6=O)c5F)CC4)cc3)C2(C)C)ccc1C#N [A-P-84] | -14% | -17% | 490 nM |  |  |
| COc1cc(O[C@H]2C(C)(C)[C@H](NC(=O)c3ccc(N4CCC5(CC4)CC(N4CCC6(CCc7cc(C(=O)N[C@H]8CCC(=O)NC8=O)c(F)cc7O6)CC4)C5)cc3)C2(C)C)ccc1C#N [A-P-37, 1'-(7-(4-(((1R,3R)-3-(4-cyano-3-methoxyphenoxy)-2,2,4,4-tetramethylcyclobutyl)carbamoyl)phenyl)-7-azaspiro[3.5]nonan-2-yl)-N-((S)-2,6-dioxopiperidin-3-yl)-7-fluorospiro[chroman-2,4'-piperidin]-6-carboxamide] | 25% | 49% | 2890 nM |  |  |
| COc1cc(O[C@H]2CC[C@H](NC(=O)c3ccc(N4CCC(CN5CCC6(CC5)COc5cc7c(cc56)n(C)c(=O)n7C5CCC(=O)NC5=O)CC4)nn3)CC2)ccc1C#N (relative stereo) [A-P-17] | 81% | 75% | 72 nM |  |  |
| N#Cc1ccc(O[C@H]2CC[C@H](NC(=O)c3ccc(N4CCC(N5CC6(CCC7(CC6)COc6c7ccc7c6CN(C6CCC(=O)NC6=O)C7=O)C5)CC4)nn3)CC2)cc1Cl (relative stereo) [A-P-1, N-((1r,4r)-4-(3-chloro-4-cyanophenoxy)cyclohexyl)-6-(4-(7'-(2,6-dioxopiperidin-3-yl)-6'-oxo-7',8'-dihydro-2'-H,6'-H-dihydro[azetidine-3,1'-cyclohexane-4',3"-furo[2,3-e]isoindol]-1-yl)piperidin-1-yl)pyridazine-3-carboxamide] | 69% | 82% | 0.026 nM |  |  |
